Entries after “also recorded” stand apart in the source; their conditions may differ.
Tests used:
uninjected oocytes = test: 45Ca release in uninjected Xenopus oocytes (control for receptor dependence); assay type: cell-based, Xenopus laevis
Description: (§1) Xenopus oocytes were harvested from female Xenopus laevis and processed using published techniques. Coleman, A., In Transcription and Translation: A Practical Approach, Oxford: IRL Press, pp. 271-302 (1984); Williams et al., PNAS 85: 4939-4943 (1988). To remove follicular cells, oocytes were incubated for 4 hr at room temperature with 1 mg/ml Sigma type II collagenase in modified Barth's solution (MBSH) without Ca^2+, then washed and incubated overnight at 18° C. in MBSH II (MBSH containing 1 mg/ml bovine serum albumin, 1 ml/ml Ficoll, 100 U/ml penicillin, 100 μg/ml streptomycin, and 50 μg/ml gentamicin). Dumont stage V oocytes were selected and microinjected with 5 to 50 nl of mRNA (1 μg/μl in 10 mM HEPES, pH 7.0). Microinjected oocytes were cultured for 24 hr at 18° C. in MBSH then selected for functional assays.
(§2) Agonist-induced increases in ^45 Ca^2+ release were assessed by published techniques. Williams et al., PNAS 85:4939-4943 (1988). […] The harvested medium was analyzed by scintillation counting to determine ^45 Ca^2+ release by the oocytes during each 10 min incubation. […] At this point, two additional 10 min collections were obtained, then medium including agonist was added and agonist-induced ^45 Ca^2+ release determined. […]

Human fMLF receptor = target: T1, Human fMLF receptor (Homo sapiens, UniProt P21462); test: Agonist-induced 45Ca release from Xenopus oocytes expressing the formyl peptide receptor; assay type: cell-based; conditions: Xenopus oocytes injected with human fMLF receptor cRNA; compared with fMLF (FIG. 2)
T1 construct: expressed in transfected cells; host or cells: Xenopus laevis oocytes microinjected with cRNA
T1 sequence (P21462 1-350): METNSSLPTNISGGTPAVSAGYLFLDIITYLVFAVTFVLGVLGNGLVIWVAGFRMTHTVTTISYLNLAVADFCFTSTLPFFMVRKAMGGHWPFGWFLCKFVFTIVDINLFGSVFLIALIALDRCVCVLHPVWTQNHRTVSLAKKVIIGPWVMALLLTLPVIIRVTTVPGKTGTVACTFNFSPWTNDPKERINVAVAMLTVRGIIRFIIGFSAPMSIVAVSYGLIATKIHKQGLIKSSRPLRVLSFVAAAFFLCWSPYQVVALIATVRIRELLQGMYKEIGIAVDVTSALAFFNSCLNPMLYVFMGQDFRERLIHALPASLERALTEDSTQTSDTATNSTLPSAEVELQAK
Description: as §1, with “Dumont stage V oocytes were selected and microinjected with 5 to 50 nl of mRNA (1 μg/μl in 10 mM HEPES, pH 7.0). Microinjected oocytes were cultured for 24 hr at 18° C. in MBSH then selected for functional assays.” left out
Agonist-induced increases in ^45 Ca^2+ release were assessed by published techniques. […] The harvested medium was analyzed by scintillation counting to determine ^45 Ca^2+ release by the oocytes during each 10 min incubation. […] At this point, two additional 10 min collections were obtained, then medium including agonist was added and agonist-induced ^45 Ca^2+ release determined.
Formyl peptide receptor response to its classical agonist fMLF (SEQ ID NO:12) and to the new agonist derived from tethered ligand library. […] Xenopus oocytes were microinjected with 5 ng cRNA transcribed from this construct, cultured for 24 hours, and ^45 Ca release in response to the indicated concentration of peptides was measured as described above.

[1] = target: T2, wild type human thrombin receptor (Homo sapiens, UniProt P25116); test: Agonist-induced 45Ca release from Xenopus oocytes expressing the wild type thrombin receptor; assay type: cell-based; conditions: Xenopus oocytes expressing epitope tagged wild type human thrombin receptor; compared with SFLLR peptide (FIG. 5A)
T2 construct: expressed in transfected cells; host or cells: Xenopus laevis oocytes (cRNA)
T2 sequence (P25116 22-425): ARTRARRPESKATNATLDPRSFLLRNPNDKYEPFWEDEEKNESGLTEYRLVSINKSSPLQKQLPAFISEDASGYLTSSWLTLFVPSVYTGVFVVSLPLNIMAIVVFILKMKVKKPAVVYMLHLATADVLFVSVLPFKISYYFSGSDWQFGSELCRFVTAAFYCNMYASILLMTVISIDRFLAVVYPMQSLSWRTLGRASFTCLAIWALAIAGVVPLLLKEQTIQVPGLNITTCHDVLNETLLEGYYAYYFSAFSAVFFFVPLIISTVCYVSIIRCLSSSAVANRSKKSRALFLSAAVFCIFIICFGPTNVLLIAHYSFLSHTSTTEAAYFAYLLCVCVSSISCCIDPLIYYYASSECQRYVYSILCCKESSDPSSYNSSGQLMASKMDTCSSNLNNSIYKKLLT
Description: as §1, §2

formyl peptide receptor = conditions: compared with f-MLF; cited from earlier work

| Substance | signaling (45Ca release) in uninjected oocytes (uninjected oocytes) | agonist activity / signaling (45Ca release) at the formyl peptide receptor (Human fMLF receptor) | agonist activity / signaling (45Ca release) at the thrombin receptor [1] | activity of the unformylated peptide relative to f-MLF (fold less activity) (formyl peptide receptor) |
| --- | --- | --- | --- | --- |
| GFIYF | did not cause signaling | did not cause signaling | nearly as effective as the SFLLR; also recorded: receptor-dependent | – |
| MLF | – | – | – | at least 1000 fold |
